Reference: patent US20050171119A1, “Pharmaceutical formulations with modified release” (UCB, S.A., priority 2002, published 2005)

Columns and labels:
[1] = Administration of 2 times 15 mg of efletirizine in solution with a 12-hour interval; format: in vivo, healthy volunteers; conditions: human, plasma, oral, 2 times 15 mg in solution; for Cmax / Tmax: 15 mg
Experimental: Two times 15 mg of efletirizine in solution were administered to 12 healthy volunteers, with a 12-hour interval.

[2] = Administration of 60 mg IR efletirizine gelatin capsule: influence of a meal; format: in vivo, patients; conditions: for AUC / Cmax / Tmax: human, in vivo, oral, 60 mg, 60 mg gelatin capsule
Experimental: A gelatin capsule containing 60 mg of efletirizine was administered to 20 fasting patients and to 22 patients who had eaten a standardized fatty meal beforehand.

[3] = Crossover trial: 10 mg IR solution plus 25 mg PR tablet J, fasting or after a meal, vs 15 mg IR solution twice; format: in vivo, human volunteers; conditions: human, plasma, oral, IR solution 15 mg × 2, 12-hour interval; for Cmax / Tmax: 15 mg
Experimental: In a crossover trial, 12 volunteers received 3 types of treatments: • 10 mg of IR efletirizine in the form of a solution and one PR tablet of 25 mg of efletirizine (J) while fasting; • 10 mg of IR efletirizine in the form of a solution and one PR tablet of 25 mg of efletirizine (J) after a standardized fatty meal; • 15 mg of IR efletirizine in the form of a solution, taken twice with a 12-hour interval
The first 3 components are granulated. The last 3 are then added and the mixture is compressed. The tablet J is a repeat of the composition of the tablet F, to which a granulating agent, Povidone K30™, has been added.

[4] = biological target: histamine H1 receptor (Homo sapiens, UniProt P35367); conditions: background statement; cited from earlier work
histamine H1 receptor, sequence (P35367 whole entry, species assumed): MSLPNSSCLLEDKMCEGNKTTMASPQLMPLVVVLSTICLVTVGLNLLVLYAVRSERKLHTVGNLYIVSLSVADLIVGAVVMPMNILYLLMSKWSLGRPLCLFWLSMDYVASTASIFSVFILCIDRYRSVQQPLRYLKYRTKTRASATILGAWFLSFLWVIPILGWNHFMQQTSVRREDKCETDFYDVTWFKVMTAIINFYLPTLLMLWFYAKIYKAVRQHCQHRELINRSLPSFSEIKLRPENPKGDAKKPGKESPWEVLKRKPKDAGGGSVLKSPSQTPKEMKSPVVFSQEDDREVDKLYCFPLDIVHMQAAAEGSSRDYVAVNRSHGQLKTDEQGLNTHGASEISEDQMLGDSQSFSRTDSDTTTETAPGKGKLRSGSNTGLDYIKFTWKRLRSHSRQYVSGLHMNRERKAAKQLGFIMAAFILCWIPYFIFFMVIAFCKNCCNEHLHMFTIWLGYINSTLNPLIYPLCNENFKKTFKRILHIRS

[5] = second dose, read-out: Cmax (2)
[6] = second dose, read-out: tmax (2)
[7] = 60 mg IR gelatin capsule, after a meal vs fasting
[8] = after a standardized fatty meal

Q: For `O=C(O)COCCN1CCN(C(c2ccc(F)cc2)c2ccc(F)cc2)CC1` [efletirizine, 2-[2-[4-[Bis(4-fluorophenyl)methyl]-1-piperazinyl]-ethoxy]acetic acid], which Cmax ([1]; first dose, read-out: Cmax(1)) is on record?
A: 307 ng/mL

Q: What about the Tmax ([1]; first dose, read-out: tmax (1)) of the same molecule?
A: 0.6 h

Q: And the Cmax [1, 5]?
A: 305 ng/mL

Q: And the Tmax [1, 6]?
A: 12.6 h

Q: What about the AUC [1] of the same molecule?
A: 2800 ng·h/mL

Q: And the “decrease of Cmax by having a meal” value [2, 7]?
A: 42%

Q: And the “influence of a meal on bioavailability” value [2, 7]?
A: decreased

Q: What about the AUC [2, 8] of the same molecule?
A: 5780 ng·h/mL

Q: And the Cmax [2, 8]?
A: 855 ng/mL

Q: And the Tmax [2, 8]?
A: 3.03 h

Q: And the AUC ([2]; fasting)?
A: 6350 ng·h/mL

Q: And the Cmax ([2]; fasting)?
A: 1470 ng/mL

Q: What about the Tmax ([2]; fasting) of the same molecule?
A: 0.77 h

Q: And the Cmax ([3]; first dose, read-out: Cmax (1))?
A: 307 ng/mL

Q: And the Tmax ([3]; first dose, read-out: tmax (1))?
A: 0.6 h

Q: And the Cmax [3, 5]?
A: 305 ng/mL

Q: What about the Tmax [3, 6] of the same molecule?
A: 12.6 h

Q: What about the AUC [3] of the same molecule?
A: 2800 ng·h/mL

Q: What about the “affinity in vitro for H1 receptors” value [4] of the same molecule?
A: great affinity

Q: What about the “selectivity in vitro for H1 receptors” value [4] of the same molecule?
A: great selectivity
